Reference: ChEMBL document CHEMBL1145304 (Bioorg Med Chem Lett, 2006)

Columns and labels:
[1] = molecular target: Sodium-dependent serotonin transporter (Homo sapiens, UniProt P31645); assay type: cell-based, HEK293
[2] = molecular target: Sodium-dependent noradrenaline transporter (Homo sapiens, UniProt P23975)
Description: Inhibition of [3H]NA reuptake at NA transporter in HEK293 cells

[3] = molecular target: Sodium-dependent dopamine transporter (Homo sapiens, UniProt Q01959)
Sequence of Sodium-dependent dopamine transporter (Q01959 whole entry): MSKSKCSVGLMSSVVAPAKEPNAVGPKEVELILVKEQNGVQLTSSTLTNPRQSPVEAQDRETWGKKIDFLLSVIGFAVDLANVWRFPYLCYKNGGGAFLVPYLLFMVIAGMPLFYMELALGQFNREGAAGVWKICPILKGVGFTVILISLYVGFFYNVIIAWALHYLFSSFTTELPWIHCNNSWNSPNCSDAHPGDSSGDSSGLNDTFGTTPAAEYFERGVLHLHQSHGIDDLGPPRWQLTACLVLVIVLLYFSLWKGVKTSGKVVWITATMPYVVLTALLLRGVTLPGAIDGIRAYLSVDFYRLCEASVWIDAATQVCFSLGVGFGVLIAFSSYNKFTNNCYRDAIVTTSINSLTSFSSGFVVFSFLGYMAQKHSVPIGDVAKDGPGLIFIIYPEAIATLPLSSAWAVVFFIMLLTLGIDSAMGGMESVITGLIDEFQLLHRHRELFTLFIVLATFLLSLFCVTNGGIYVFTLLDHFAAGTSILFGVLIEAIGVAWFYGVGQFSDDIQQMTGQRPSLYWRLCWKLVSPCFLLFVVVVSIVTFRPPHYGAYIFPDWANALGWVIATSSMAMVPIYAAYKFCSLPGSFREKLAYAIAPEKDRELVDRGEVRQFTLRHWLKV
Description: Inhibition of [3H]DA reuptake at DA transporter in HEK293 cells

Sequence of Sodium-dependent noradrenaline transporter (P23975 whole entry): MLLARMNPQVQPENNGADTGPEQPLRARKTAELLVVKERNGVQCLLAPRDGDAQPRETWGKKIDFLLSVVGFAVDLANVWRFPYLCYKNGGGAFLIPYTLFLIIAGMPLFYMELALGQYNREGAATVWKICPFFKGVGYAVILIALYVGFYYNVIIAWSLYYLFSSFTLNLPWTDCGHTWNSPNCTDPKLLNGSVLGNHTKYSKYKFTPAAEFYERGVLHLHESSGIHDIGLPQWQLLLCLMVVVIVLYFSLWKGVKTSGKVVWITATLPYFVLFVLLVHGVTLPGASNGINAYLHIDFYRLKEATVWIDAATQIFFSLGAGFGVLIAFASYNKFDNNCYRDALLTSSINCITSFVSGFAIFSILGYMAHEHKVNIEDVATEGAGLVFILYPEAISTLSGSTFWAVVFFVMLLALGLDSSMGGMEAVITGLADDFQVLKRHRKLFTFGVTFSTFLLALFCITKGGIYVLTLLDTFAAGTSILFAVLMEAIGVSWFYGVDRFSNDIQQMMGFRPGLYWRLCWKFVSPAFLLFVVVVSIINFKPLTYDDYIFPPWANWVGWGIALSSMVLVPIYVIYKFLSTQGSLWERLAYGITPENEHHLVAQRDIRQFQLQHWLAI
Sequence of Sodium-dependent serotonin transporter (P31645 whole entry): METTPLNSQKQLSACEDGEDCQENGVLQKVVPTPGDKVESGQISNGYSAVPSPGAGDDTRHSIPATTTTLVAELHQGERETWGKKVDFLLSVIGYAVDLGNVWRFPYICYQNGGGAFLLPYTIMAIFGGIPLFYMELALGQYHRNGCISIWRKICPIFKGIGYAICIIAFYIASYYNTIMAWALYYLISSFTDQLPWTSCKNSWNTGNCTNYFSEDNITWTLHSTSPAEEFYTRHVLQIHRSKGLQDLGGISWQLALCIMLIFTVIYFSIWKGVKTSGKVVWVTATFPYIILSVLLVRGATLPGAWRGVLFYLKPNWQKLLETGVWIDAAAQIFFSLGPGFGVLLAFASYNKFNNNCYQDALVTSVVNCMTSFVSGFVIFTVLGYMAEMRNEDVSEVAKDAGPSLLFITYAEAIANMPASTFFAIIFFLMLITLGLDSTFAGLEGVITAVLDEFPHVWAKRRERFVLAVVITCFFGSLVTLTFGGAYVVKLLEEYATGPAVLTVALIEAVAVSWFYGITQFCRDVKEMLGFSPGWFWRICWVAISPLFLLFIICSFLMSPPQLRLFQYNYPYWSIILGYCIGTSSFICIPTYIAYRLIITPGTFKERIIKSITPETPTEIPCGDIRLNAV

Row | SMILES | IC50 [1] [nM] | IC50 [2] [nM] | IC50 [3] [nM]
1 | CCOc1ccccc1CC(c1cncs1)N1CCNCC1 (centres undefined) | 40 | 21 | 
2 | c1ccc(C(Cc2ccccn2)N2CCNCC2)cc1 (centres undefined) | 230 | > 400 | 
3 | Clc1ccccc1CC(c1cccnc1)N1CCNCC1 (centres undefined) | 14 | 75 | 9200
4 | c1ccc(C(Cc2ccncc2)N2CCNCC2)cc1 (centres undefined) | 38 | > 400 | 
5 | Clc1ccccc1CC(c1cncs1)N1CCNCC1 (centres undefined) | 12 | 120 | 
6 | c1ccc(C(Cc2cccc3ccccc23)N2CCNCC2)cc1 (centres undefined) | 12 | > 400 | 
7 | CCOc1ccccc1CC(c1ccccc1)N1CCCNCC1 (centres undefined) | 300 | 8.8 | 
8 | CCOc1ccccc1CC(c1cccnc1)N1CCNCC1 (centres undefined) | 46 | 15 | > 4000
9 | c1ccc(CCC(Cc2ccccc2)N2CCNCC2)cc1 (centres undefined) | 23 | 48 | 400
10 | c1ccc(CCC(c2ccccc2)N2CCNCC2)cc1 (centres undefined) | 23 | > 400 | 
11 | c1ccc(C(Cc2ccc3ccccc3c2)N2CCNCC2)cc1 (centres undefined) | 17 | > 400 | 
12 | Clc1ccccc1CC(c1ccccc1)N1CCCNCC1 (centres undefined) | 42 | 76 | 
13 | CCOc1ccccc1CC(c1nccs1)N1CCNCC1 (centres undefined) | 39 | 340 | 
